“Also recorded” adds a separate entry of the source.
Legend:
[1] = tested on: metathoracic ganglion of the locust; test: Repetitive SD triggered by ouabain in locust; format: in vivo, Locusta migratoria; conditions: for number of repetitive SD-like events in animals that generated SD: ouabain exposure, FIG. 2D; for baseline [K+]o levels during ouabain exposure: pre-treatment, FIG. 2E
From the text: In a second set of experiments, repetitive SD triggered by the ionic disturbance caused by ouabain (a specific inhibitor of the sodium/potassium pump that restores ionic gradients across cell membranes) was examined.
Pretreatment with a bath application of KT5823 prevented repetitive SD in 70% of animals. […] FIG. 2B illustrates a representative example in a single preparation of the eradication of repetitive SD by prior bath application of KT5823. FIG. 2C illustrates that KT5823 reduced the percentage of preparations showing repetitive SD in response to ouabain, while FIG. 2D illustrates that control and KT5823-treated preparations have fewer repetitive SD events.

PKG = PKG enzyme activity assay on heads of treated flies; format: biochemical, Drosophila melanogaster; conditions: heads of sitter flies treated in vivo with volatilized agent, versus sham control
Protocol: PKG enzyme activity assays: PKG enzyme activity assays were conducted according to the procedure outlined in Kaun et al. (J Exp Biol. 210(Pt 20):3547-3558, 2007). Adult Drosophila were decapitated and the heads were homogenized in 25 mM 1-1 Tris (pH 7.4), 1 mM 1-1 EDTA, 2 mM 1-1 EGTA, 5 mM 1-1 β-mercaptoethanol, 0.05% Triton X-100 and protease inhibitor solution (Roche Diagnostics). Following microcentrifugation for 5 min, the supernatant was removed and those supernatants containing equal amounts of total protein were examined for PKG enzyme activity. The reaction mixture contained the following substances: 40 mM 1-1 Tris-HCl (pH 7.4), 20 mM 1-1 magnesium acetate, 0.2 mM 1-1 [γ^32P]ATP (500-1000 c.p.m. pmol−1), […] heptapeptide (RKRSRAE), (SEQ ID NO:6), (3 mM 1-1 cGMP and a highly specific inhibitor of cAMP-dependent protein kinase. The next step of the procedure involved incubating the reaction mixtures at a temperature of 30° C. for 10 min, followed by ending the reaction by spotting 70 μl of the reaction mixture onto Whatman P-81 filters. To remove any unreacted [γ^32P]ATP, these spots were then soaked with 75 mM 1-1 H3PO4 for 5 min and washed three times with 75 mM 1-1 H3PO4. Before quantifying enzyme activity, filters were rinsed with 100% ethanol and air dried. To calculate PKG enzyme activity, counts were taken in a Wallac 1409 Liquid Scintillation Counter using universal scintillation cocktail (ICN). PKG activity was presented in the figures as pmol of ^32P incorporated into the substrate min−1 mg−1 protein.

zebrafish = test: Zebrafish behaviour during acute anoxia; format: in vivo; conditions: whole zebrafish in anoxic water post-treatment; expected
From the text: Vertebrate (zebrafish) behaviour is examined during acute anoxia. Whole zebrafish are exposed to anoxic water post-treatment with a PDE5 inhibitor, 8-bromo-GMP, KT5823, and Cantharidin. The time until the animal knocks out during anoxia is monitored.

Compound	number of repetitive SD-like events in animals that generated SD [1]	baseline [K+]o levels during ouabain exposure [1]	animals in which repetitive SD was prevented ([1]; pretreatment by bath application, then ouabain) [%]	head PKG enzyme activity (PKG)	time until the animal knocks out during anoxia (zebrafish)	animals in which repetitive SD was generated ([1]; concomitantly treated with 10^-4 M ouabain) [%]	head PKG enzyme activity (PKG; listed as 8-Bromo cGMP)	head PKG enzyme activity (PKG; listed as 8-bromo cGMP)
COC(=O)[C@@]1(OC)C[C@H]2O[C@]1(C)n1c3ccccc3c3c4c(c5c6ccccc6n2c5c31)C(=O)N(C)C4 [KT5823, (9S, 10R, 12R)-2,3,9,10,11,12-Hexahydro-10-methoxy-2-9-dimethyl-1-oxo-9,12-epoxy-1H-diindolo-[1,2,3-fg:3′,2′,1′-k1]pyrrolo[3,4-i][1,6]benzodiazocine-10-carboxylic acid methyl ester]	significantly more SD-like events than KT5823-treated animals	significantly reduces the baseline [K^+]o levels	70	significantly reducing PKG activity; also recorded: demonstrated significant effects compared to that of the sham control	neuroprotection and prolonged behaviour when subject to anoxia			
Nc1nc2c(nc(Br)n2[C@@H]2O[C@@H]3COP(=O)(O)O[C@H]3[C@H]2O)c(=O)[nH]1 [8-Br-cGMP]	significantly fewer SD-like events than 8-Br-cGMP-treated animals	did not raise the baseline [K^+]o levels above controls			increased sensitivity to anoxia causing early failure of behaviour (neural function)	100	demonstrated significant effects compared to that of the sham control	induced an increase in head PKG activity levels; also recorded: increasing head PKG activity levels significantly beyond rover levels

— patent US8026217B2, “Compositions and methods for treating neural anoxia and spreading depression” (Florida Atlantic University, priority 2007, dated 2011)
